# Assay results: patent publication US10597388B2, “Pyridazinone herbicides” (FMC CORPORATION, priority 2014, dated 2020)
# How the values were obtained:
# Format in all cases: in vivo
# [1] = system: galium (catchweed bedstraw, Galium aparine); assay: Test A greenhouse herbicide test, postemergence; conditions: for Plant response rating, Galium: 125 g ai/ha; for Galium plant response rating: 500 g ai/ha, 0 to 100 scale, 0 is no effect, 100 is complete control
# In short: (§1)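 Visual injury score, 0 (no effect) to 100 (complete control), versus untreated controls roughly 10 d after postemergence spray; plants at one- to two-leaf stage, 2 to 10 cm tall, in loam soil and sand, kept in greenhouse.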
# [2] = system: blackgrass (Alopecurus myosuroides); assay: Test A greenhouse herbicide test, postemergence; conditions: for Plant response rating, Blackgrass: 125 g ai/ha; for Blackgrass plant response rating: 500 g ai/ha, 0 to 100 scale, 0 is no effect, 100 is complete control
# In short: as §1
# [3] = system: ryegrass, Italian (Italian ryegrass, Lolium multiflorum); assay: Test C greenhouse herbicide test, pre- and postemergence
# In short: (§2)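 Visual ratings on a 0 to 100 scale (0 = no effect, 100 = complete control) versus untreated controls, scored 13–15 d after treatment. Soil-applied preemergence to seeded loam/sand; foliar postemergence to 1- to 4-leaf plants (2–18 cm) in peat-vermiculite mix; compounds formulated in solvent plus surfactant.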
# corn (Zea mays) = assay: as above
# In short: as §2
# kochia (Kochia scoparia) = assay: Test A greenhouse herbicide test, pre- and postemergence
# In short: (§3)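 Seeds in loam–sand blend received a preemergence directed soil spray; plants at 2–10 cm, one- to two-leaf stage, received postemergence sprays. Compounds in a non-phytotoxic solvent with surfactant. After about 10 d in a greenhouse, injury rated visually versus untreated controls on a 0–100 scale (100 = complete control).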
# [4] = system: ryegrass, Italian (Italian ryegrass, Lolium multiflorum); assay: as above
# In short: as §3
# [5] = system: barnyardgrass (Echinochloa crus-galli); assay: as above
# In short: as §3
# [6] = system: ragweed (common ragweed, Ambrosia elatior); assay: as above
# In short: as §3
# [7] = system: foxtail, giant (giant foxtail, Setaria faberii); assay: as above
# In short: as §3
# [8] = system: pigweed (Amaranthus retroflexus); assay: as above
# In short: as §3
# [9] = system: wheat (Triticum aestivum); assay: as above; conditions: Postemergence; for Plant response rating, Wheat: 125 g ai/ha, 0 to 100 scale where 0 is no effect and 100 is complete control; for Wheat plant response rating: 500 g ai/ha, 0 to 100 scale, 0 is no effect, 100 is complete control
# In short: as §3
# [10] = visual rating after approx. 10 d, 0 to 100 scale (0 no effect, 100 complete control)
# [11] = Postemergence, 31 g ai/ha, 0 to 100 scale (0 no effect, 100 complete control)
# [12] = Postemergence, 125 g ai/ha, scale 0 to 100, 0 is no effect, 100 is complete control
# [13] = Postemergence, 250 g ai/ha, scale 0 to 100, 0 no effect, 100 complete control, 13 to 15 d
# [14] = Preemergence, 31 g ai/ha, scale 0 to 100, 0 is no effect, 100 is complete control
# [15] = Preemergence, 62 g ai/ha, scale 0 to 100, 0 is no effect, 100 is complete control
# [16] = Preemergence, 125 g ai/ha, scale 0 to 100, 0 is no effect, 100 is complete control
# [17] = Preemergence, 250 g ai/ha, scale 0 to 100 (0 no effect, 100 complete control)
# [18] = postemergence, 62 g ai/ha, scale 0 to 100, 0 no effect, 100 complete control
# [19] = Postemergence, 125 g ai/ha, visual rating after approx. 10 d, 0 to 100 scale (0 no effect, 100 complete control)
# [20] = Postemergence, 500 g ai/ha, 0 to 100 scale, 0 is no effect, 100 is complete control
# [21] = Preemergence, 125 g ai/ha, 0 to 100 scale where 0 is no effect and 100 is complete control
# [22] = Preemergence, 500 g ai/ha, 0 to 100 scale, 0 no effect, 100 complete control
# [23] = Postemergence, 125 g ai/ha, 0 to 100 scale where 0 is no effect and 100 is complete control
# [24] = 0 to 100 scale where 0 is no effect and 100 is complete control
# [25] = Postemergence, 16 g ai/ha, scale 0 to 100 (0 no effect, 100 complete control)
structure (smiles),measurement,setting,value
CCOC(=O)Oc1c(C)nn(C)c(=O)c1-c1c(CC)ccc2ccccc12 [Compound 37],"Plant response rating, Galium",[1]; [10],100
same,Galium plant response rating,[1],100
same,"Plant response rating, Blackgrass",[2]; [10],60
same,Blackgrass plant response rating,[2],100
same,"Ryegrass, Italian plant response rating",[3]; [11],80
same,"Plant response rating, Ryegrass, Italian",[3]; [12],90
same,"Plant response rating, Ryegrass, Italian",[3]; [13],90
same,"Plant response rating, Ryegrass, Italian",[3]; [14],50
same,"Plant response rating, Ryegrass, Italian",[3]; [15],85
same,"Plant response rating, Ryegrass, Italian",[3]; [16],90
same,"Ryegrass, Italian plant response rating",[3]; [17],95
same,"Ryegrass, Italian plant response rating",[3]; [18],85
same,Corn plant response rating,corn (Zea mays); [11],0
same,"Plant response rating, Corn",corn (Zea mays); [12],20
same,"Plant response rating, Corn",corn (Zea mays); [13],30
same,"Plant response rating, Corn",corn (Zea mays); [14],0
same,"Plant response rating, Corn",corn (Zea mays); [15],0
same,"Plant response rating, Corn",corn (Zea mays); [16],0
same,Corn plant response rating,corn (Zea mays); [17],20
same,Corn plant response rating,corn (Zea mays); [18],10
same,"Plant response rating, Kochia",kochia (Kochia scoparia); [19],60
same,Kochia plant response rating,kochia (Kochia scoparia); [20],90
same,Kochia plant response rating,kochia (Kochia scoparia); [21],30
same,"Plant response rating, Kochia",kochia (Kochia scoparia); [22],80
same,"Plant response rating, Ryegrass, Italian",[4]; [23],90
same,"Ryegrass, Italian plant response rating",[4]; [20],100
same,"Ryegrass, Italian plant response rating",[4]; [21],90
same,"Plant response rating, Ryegrass, Italian",[4]; [22],100
same,"Plant response rating, Barnyardgrass",[5]; [19],60
same,Barnyardgrass plant response rating,[5]; [20],90
same,Barnyardgrass plant response rating,[5]; [21],30
same,"Plant response rating, Barnyardgrass",[5]; [22],90
same,"Plant response rating, Ragweed",[6]; [19],90
same,Ragweed plant response rating,[6]; [20],90
same,Ragweed plant response rating,[6]; [21],80
same,"Plant response rating, Ragweed",[6]; [22],90
same,"Plant response rating, Foxtail, Giant",[7]; [19],80
same,"Foxtail, Giant plant response rating",[7]; [20],90
same,"Foxtail, Giant plant response rating",[7]; [21],70
same,"Plant response rating, Foxtail, Giant",[7]; [22],90
same,"Plant response rating, Pigweed",[8]; [19],100
same,Pigweed plant response rating,[8]; [20],100
same,Pigweed plant response rating,[8]; [21],100
same,"Plant response rating, Pigweed",[8]; [22],100
same,"Plant response rating, Wheat",[9],40
same,Wheat plant response rating,[9],80
COc1ccc2ccccc2c1-c1c(O)c(C)nn(C)c1=O [Compound 40],"Plant response rating, Galium",[1]; [24],90
same,Galium plant response rating,[1],100
same,"Plant response rating, Blackgrass",[2]; [24],60
same,Blackgrass plant response rating,[2],80
same,"Plant response rating, Ryegrass, Italian",[3]; [25],10
same,"Ryegrass, Italian plant response rating",[3]; [11],50
same,"Plant response rating, Ryegrass, Italian",[3]; [12],80
same,"Ryegrass, Italian plant response rating",[3]; [18],65
same,"Plant response rating, Corn",corn (Zea mays); [25],0
same,Corn plant response rating,corn (Zea mays); [11],0
same,"Plant response rating, Corn",corn (Zea mays); [12],20
same,Corn plant response rating,corn (Zea mays); [18],0
same,"Plant response rating, Kochia",kochia (Kochia scoparia); [23],80
same,Kochia plant response rating,kochia (Kochia scoparia); [20],90
same,Kochia plant response rating,kochia (Kochia scoparia); [21],50
same,"Plant response rating, Kochia",kochia (Kochia scoparia); [22],80
same,"Plant response rating, Ryegrass, Italian",[4]; [23],90
same,"Ryegrass, Italian plant response rating",[4]; [20],90
same,"Ryegrass, Italian plant response rating",[4]; [21],60
same,"Plant response rating, Ryegrass, Italian",[4]; [22],100
same,"Plant response rating, Barnyardgrass",[5]; [23],10
same,Barnyardgrass plant response rating,[5]; [20],60
same,Barnyardgrass plant response rating,[5]; [21],10
same,"Plant response rating, Barnyardgrass",[5]; [22],50
same,"Plant response rating, Ragweed",[6]; [23],70
same,Ragweed plant response rating,[6]; [20],90
same,Ragweed plant response rating,[6]; [21],30
same,"Plant response rating, Ragweed",[6]; [22],80
same,"Plant response rating, Foxtail, Giant",[7]; [23],60
same,"Foxtail, Giant plant response rating",[7]; [20],80
same,"Foxtail, Giant plant response rating",[7]; [21],40
same,"Plant response rating, Foxtail, Giant",[7]; [22],70
same,"Plant response rating, Pigweed",[8]; [23],80
same,Pigweed plant response rating,[8]; [20],100
same,Pigweed plant response rating,[8]; [21],90
same,"Plant response rating, Pigweed",[8]; [22],100
same,"Plant response rating, Wheat",[9],0
same,Wheat plant response rating,[9],50
CCC(=O)Oc1c(C)nn(C)c(=O)c1-c1c(C)sc2ccc(C)cc12 [Compound 42],"Plant response rating, Galium",[1]; [24],100
same,Galium plant response rating,[1],100
same,"Plant response rating, Blackgrass",[2]; [24],80
same,Blackgrass plant response rating,[2],90
same,"Ryegrass, Italian plant response rating",[3]; [11],65
same,"Plant response rating, Ryegrass, Italian",[3]; [12],90
same,"Plant response rating, Ryegrass, Italian",[3]; [13],95
same,"Plant response rating, Ryegrass, Italian",[3]; [14],85
same,"Plant response rating, Ryegrass, Italian",[3]; [15],90
same,"Plant response rating, Ryegrass, Italian",[3]; [16],90
same,"Ryegrass, Italian plant response rating",[3]; [17],90
same,"Ryegrass, Italian plant response rating",[3]; [18],90
same,Corn plant response rating,corn (Zea mays); [11],0
same,"Plant response rating, Corn",corn (Zea mays); [12],5
same,"Plant response rating, Corn",corn (Zea mays); [13],5
same,"Plant response rating, Corn",corn (Zea mays); [14],0
same,"Plant response rating, Corn",corn (Zea mays); [15],0
same,"Plant response rating, Corn",corn (Zea mays); [16],10
same,Corn plant response rating,corn (Zea mays); [17],35
same,Corn plant response rating,corn (Zea mays); [18],5
same,"Plant response rating, Kochia",kochia (Kochia scoparia); [23],100
same,Kochia plant response rating,kochia (Kochia scoparia); [20],100
same,Kochia plant response rating,kochia (Kochia scoparia); [21],80
same,"Plant response rating, Kochia",kochia (Kochia scoparia); [22],100
same,"Plant response rating, Ryegrass, Italian",[4]; [23],100
same,"Ryegrass, Italian plant response rating",[4]; [20],100
same,"Ryegrass, Italian plant response rating",[4]; [21],100
same,"Plant response rating, Ryegrass, Italian",[4]; [22],100
same,"Plant response rating, Barnyardgrass",[5]; [23],30
same,Barnyardgrass plant response rating,[5]; [20],90
same,Barnyardgrass plant response rating,[5]; [21],80
same,"Plant response rating, Barnyardgrass",[5]; [22],100
same,"Plant response rating, Ragweed",[6]; [23],100
same,Ragweed plant response rating,[6]; [20],100
same,Ragweed plant response rating,[6]; [21],90
same,"Plant response rating, Ragweed",[6]; [22],100
same,"Plant response rating, Foxtail, Giant",[7]; [23],90
same,"Foxtail, Giant plant response rating",[7]; [20],100
same,"Foxtail, Giant plant response rating",[7]; [21],80
same,"Plant response rating, Foxtail, Giant",[7]; [22],100
same,"Plant response rating, Pigweed",[8]; [23],90
same,Pigweed plant response rating,[8]; [20],100
same,Pigweed plant response rating,[8]; [21],100
same,"Plant response rating, Pigweed",[8]; [22],100
same,"Plant response rating, Wheat",[9],0
same,Wheat plant response rating,[9],20
Cc1cc(C)c2ccccc2c1-c1c(O)cnn(C)c1=O [Compound 51],"Plant response rating, Galium",[1]; [24],90
same,Galium plant response rating,[1],100
same,"Plant response rating, Blackgrass",[2]; [24],30
same,Blackgrass plant response rating,[2],60
same,"Ryegrass, Italian plant response rating",[3]; [11],35
same,"Plant response rating, Ryegrass, Italian",[3]; [12],60
same,"Plant response rating, Ryegrass, Italian",[3]; [13],70
same,"Ryegrass, Italian plant response rating",[3]; [18],50
same,Corn plant response rating,corn (Zea mays); [11],0
same,"Plant response rating, Corn",corn (Zea mays); [12],0
same,"Plant response rating, Corn",corn (Zea mays); [13],0
same,Corn plant response rating,corn (Zea mays); [18],0
same,"Plant response rating, Kochia",kochia (Kochia scoparia); [23],70
same,Kochia plant response rating,kochia (Kochia scoparia); [20],90
same,Kochia plant response rating,kochia (Kochia scoparia); [21],0
same,"Plant response rating, Kochia",kochia (Kochia scoparia); [22],30
same,"Plant response rating, Ryegrass, Italian",[4]; [23],60
same,"Ryegrass, Italian plant response rating",[4]; [20],90
same,"Ryegrass, Italian plant response rating",[4]; [21],50
same,"Plant response rating, Ryegrass, Italian",[4]; [22],90
same,"Plant response rating, Barnyardgrass",[5]; [23],20
same,Barnyardgrass plant response rating,[5]; [20],80
same,Barnyardgrass plant response rating,[5]; [21],30
same,"Plant response rating, Barnyardgrass",[5]; [22],90
same,"Plant response rating, Ragweed",[6]; [23],70
same,Ragweed plant response rating,[6]; [20],70
same,Ragweed plant response rating,[6]; [21],30
same,"Plant response rating, Ragweed",[6]; [22],80
same,"Plant response rating, Foxtail, Giant",[7]; [23],50
same,"Foxtail, Giant plant response rating",[7]; [20],80
same,"Foxtail, Giant plant response rating",[7]; [21],50
same,"Plant response rating, Foxtail, Giant",[7]; [22],90
same,"Plant response rating, Pigweed",[8]; [23],70
same,Pigweed plant response rating,[8]; [20],90
same,Pigweed plant response rating,[8]; [21],70
same,"Plant response rating, Pigweed",[8]; [22],100
same,"Plant response rating, Wheat",[9],0
same,Wheat plant response rating,[9],0
